Experimental data taken from US20020072127A1, “Assay of chemical binding” (priority 2000, published 2002).

Assay: Micro-cantilever deflection on ligand-receptor binding (biotin-coated micro-cantilever immersed in water in small vessel)
Text: Referring to FIG. 1, a micro-cantilever 10 is fixed at one end to a block 12. The micro-cantilever 10 is generally V-shaped in plan, comprising two converging strips 13,14, which are integral with a transverse cross strip 15. It projects 0.2 mm from the block 12, the strips 13 and 14 each being 24 microns wide and the entire micro-cantilever 10 is of silicon nitride of thickness 0.6 microns. The top surface of the micro-cantilever 10 is coated with a 5 nm layer of chromium followed by a 13 nm layer of gold, to improve its optical reflectivity. The gold on one strip 13 is then coated with octadecanethiol, which forms a self-assembled, highly ordered monolayer on gold, and biotin is then bonded to this monolayer. Biotin acts as a selective receptor for avidin.
Referring now to FIG. 2 any deflection or twisting of the micro-cantilever 10 is detected optically, by focusing a light beam from a laser diode 16 onto the cross strip 15, and detecting the reflection with a quadrant photodiode 18. The light intensities detected by the four segments of the photodiodo 19 may be used to determine the deflection of the cross strip 15. If the micro-cantilever 10 is exposed to a solution of avidin, which binds to the biotin, this changes the surface stress of the strip 13, causing the micro-cantilever 10 to twist, so changing the inclination of the cross strip 15.
The time at which the avidin is injected is indicated by the arrow A. Before this time the deflection is substantially constant. The gradual change in deflection over a period of about five minutes, the deflection then reaching a new, steady value differing by h from its initial value. The bending is caused by the surface stress change resulting from the reaction; the change in surface stress is, at least approximately, equal to the change of surface energy, which can be related to the concentration c or the ligand and the equilibrium constant K of the binding reaction onto the surface (i.e. ka/kd, where ka is the adsorption coefficient and kd is the desorption coefficient).

| Substance | binding strength to biotin relative to immunoglobulin G (FIG. 5, avidin displaces bound immunoglobulin G) | further deflection of the micro-cantilever (FIG. 5, avidin injected (arrow Q) after IgG had bound to biotin, arbitrary units) | deflection of the micro-cantilever resulting from injection (FIG. 5, IgG injected first (arrow P), arbitrary units, steady value after several minutes) | deflection resulting from the initial injection (FIG. 6, concentration in vessel 0.047 μM, after about 10 minutes, arbitrary units) | deflection resulting from the second injection (FIG. 6, concentration raised to 0.068 μM, after a further 10 minutes, arbitrary units) |
| --- | --- | --- | --- | --- | --- |
| avidin | binds to biotin more strongly | about 200 units | – | – | – |
| immunoglobulin G | – | – | about 200 units | about 235 units | about 290 units |
